Assay results published in patent US20230158025A1 (UNIVERSITY OF UTAH RESEARCH FOUNDATION, priority 2020, published 2023).
Like-named read-outs stand apart in the source and are kept apart here.

Experiments:
PAMPA permeability = conditions: for Papp: Perm. (1 × 10^−6 cm/sec)
[1] = rat microsomal stability (RLM)
[2] = aqueous kinetic solubility
recombinant human GALK1 = recombinant human GALK1 (Homo sapiens, UniProt P51570); assay: hGALK1 biochemical activity assay (Kinase-Glo Plus, ATP depletion)
Sequence of recombinant human GALK1 (P51570 whole entry): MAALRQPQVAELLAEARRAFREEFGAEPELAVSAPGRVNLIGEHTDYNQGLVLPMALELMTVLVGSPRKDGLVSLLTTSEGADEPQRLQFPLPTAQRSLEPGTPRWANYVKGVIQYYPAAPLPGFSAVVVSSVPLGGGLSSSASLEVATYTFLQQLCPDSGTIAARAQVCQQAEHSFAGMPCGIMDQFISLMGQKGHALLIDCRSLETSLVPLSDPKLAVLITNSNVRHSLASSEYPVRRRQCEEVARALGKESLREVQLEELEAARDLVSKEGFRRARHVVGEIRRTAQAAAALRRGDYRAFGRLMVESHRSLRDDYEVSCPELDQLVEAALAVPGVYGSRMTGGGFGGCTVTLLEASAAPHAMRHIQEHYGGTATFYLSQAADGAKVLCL
Method: In vitro hGALK1 activity assays were performed as previously described. Liu et al., Bioorg. Med. Chem. Lett. 25(3): 721-727 (2015), which is incorporated by reference herein for the specific teachings thereof. The biochemical assay was performed by coupling the activity of recombinant human or mouse GALK1 to the Kinase-Glo Plus luminescent ATP detection kit, using ATP depletion as a measure of GALK1 turnover. Specifically, three μL/well of ATP substrate solution (35 μM ATP) in assay buffer (20 mM HEPES pH 8.0, 5 mM MgCl2, 60 mM NaCl, 1 mM DTT, 0.01% BSA final concentration) was dispensed into 1536-well assay plates (Greiner, white solid-bottom medium-binding plates). Aliquots of compound (23 nL solubilized in DMSO) were transferred to the assay plates using a Kalypsys 1536-well pintool such that 11 concentrations with 1/3 dilutions ranging from 57.4 μM-0.97 nM are tested. One μL/well of GALK-galactose solution (5 nM GALK1, 100 μM galactose) in assay buffer was then added, yielding a final reaction volume of 4 μL/well. Following a 1-hour room temperature incubation, 4 μL of Kinase-Glo Plus detection reagent was added to provide an ATP-dependent luminescent readout (final assay volume: 8 μL/well).

recombinant mouse GALK1 = recombinant mouse GALK1 (Mus musculus, UniProt Q9R0N0); assay: mGALK1 biochemical activity assay (Kinase-Glo Plus, ATP depletion)
Sequence of recombinant mouse GALK1 (Q9R0N0 whole entry): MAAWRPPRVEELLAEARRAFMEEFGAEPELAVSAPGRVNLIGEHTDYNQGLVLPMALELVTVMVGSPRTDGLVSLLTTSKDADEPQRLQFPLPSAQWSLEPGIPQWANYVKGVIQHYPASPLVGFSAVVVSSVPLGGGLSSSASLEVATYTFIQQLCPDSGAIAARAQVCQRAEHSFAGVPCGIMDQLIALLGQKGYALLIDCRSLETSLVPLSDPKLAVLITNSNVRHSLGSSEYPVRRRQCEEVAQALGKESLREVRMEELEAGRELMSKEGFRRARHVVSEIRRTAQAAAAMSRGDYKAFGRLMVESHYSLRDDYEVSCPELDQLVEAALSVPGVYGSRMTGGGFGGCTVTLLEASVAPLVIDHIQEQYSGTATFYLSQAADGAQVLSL
Method: In vitro hGALK1 activity assays were performed as previously described. Liu et al., Bioorg. […] The biochemical assay was performed by coupling the activity of recombinant human or mouse GALK1 to the Kinase-Glo Plus luminescent ATP detection kit, using ATP depletion as a measure of GALK1 turnover. […] One μL/well of GALK-galactose solution (5 nM GALK1, 100 μM galactose) in assay buffer was then added, yielding a final reaction volume of 4 μL/well. Following a 1-hour room temperature incubation, 4 μL of Kinase-Glo Plus detection reagent was added to provide an ATP-dependent luminescent readout (final assay volume: 8 μL/well).

[3] = recombinant human GALK1, Kinase-Glo Plus ATP depletion, read-out: hGALK
[4] = microsomal stability half-life, minutes
[5] = recombinant mouse GALK1, Kinase-Glo Plus ATP depletion, bracketed figure in the cell, e.g. (−1.2), is not defined in the text shown, read-out: mGALK
[6] = Tables 2-15, 35 μM ATP, 100 μM galactose, 1 h, bracketed figure after some values (e.g. −1.2) is undefined and not reported, read-out: hGALK IC50
[7] = recombinant mouse GALK1, Kinase-Glo Plus ATP depletion, read-out: mGALK
[8] = Tables 2-15, 35 μM ATP, 100 μM galactose, 1 h, bracketed figure after some values is undefined and not reported, read-out: mGALK IC50
[9] = recombinant mouse GALK1, Kinase-Glo Plus ATP depletion
[10] = recombinant human GALK1, Kinase-Glo Plus ATP depletion

Row | SMILES | Perm. (1 × 10^−6 cm/sec) (PAMPA permeability) | Metab. Stabil. (m) ([1]; microsomal half-life) | Sol. [2] [µg/mL] | IC50 (recombinant human GALK1; [3]) [µM] | Perm. (1 × 10^−6 cm/sec) (PAMPA permeability; PAMPA) | Sol. ([2]; aqueous kinetic solubility) [µg/mL] | Metab. Stabil. (m) ([1]; microsomal stability half-life) | other results
1 | CC1=C(C(=O)Nc2nnc(-c3cccnc3)s2)C(c2ccccc2Cl)N=C(Nc2nc3cc(N)ccc3o2)N1 (stereo not drawn) [Compound 101, 2-((5-aminobenzo[d]oxazol-2-yl)amino)-4-(2-chlorophenyl)-6-methyl-N-(5-(pyridin-3-yl)-1,3,4-thiadiazol-2-yl)-1,4-dihydropyrimidine-5-carboxamide] | 4.4 1 × 10^−6 cm/sec | >30 | 1.8 | 10.9 | – | – | – | –
2 | COCC1=C(C(=O)Nc2nncs2)C(c2ccccc2Cl)N=C(Nc2nc3ccccc3o2)N1 (stereo not drawn) [Compound 247] | – | – | – | – | 319.8 1 × 10^−6 cm/sec | <1 | – | Metab. Stabil. (m) [1, 4]: >30 m; IC50 (recombinant mouse GALK1; [5]): 19.3 µM
3 | CC1=C(C(=O)Nc2cc(C(=O)O)ccn2)C(c2ccc(C(=O)O)cc2Cl)N=C(Nc2nc3ccc(F)cc3o2)N1 (stereo not drawn) [Compound 72, 2-(4-(4-carboxy-2-chlorophenyl)-2-((6-fluorobenzo[d]oxazol-2-yl)amino)-6-methyl-1,4-dihydropyrimidine-5-carboxamido)isonicotinic acid] | <1 1 × 10^−6 cm/sec | >30 | >83 | 2.17 | – | – | – | IC50 (recombinant human GALK1; [6]): 2.17 µM
4 | CN(C)C(=O)C1CC(=O)C2=C(C1)NC(Nc1nc3ccccc3o1)=NC2c1ccccc1Cl (stereo not drawn) [Compound 277, 2-(benzo[d]oxazol-2-ylamino)-4-(2-chlorophenyl)-N,N-dimethyl-5-oxo-1,4,5,6,7,8-hexahydroquinazoline-7-carboxamide] | – | – | – | – | 219.68 1 × 10^−6 cm/sec | 10.84 | – | Metab. Stabil. (m) [1, 4]: 20.79 m; IC50 (recombinant mouse GALK1; [5]): 4.32 µM
5 | CC1=C(C(=O)Nc2cc(C(=O)O)ccn2)C(c2ccc(C)cc2Cl)N=C(Nc2ncc(-c3ccccc3)o2)N1 (stereo not drawn) [Compound 103, 2-(4-(2-chloro-4-methylphenyl)-6-methyl-2-((5-phenyloxazol-2-yl)amino)-1,4-dihydropyrimidine-5-carboxamido)isonicotinic acid] | 4.14 1 × 10^−6 cm/sec | >30 | 42.2 | 24.3 | – | – | – | IC50 (recombinant human GALK1; [6]): 24.3 µM
6 | CC1=C(C(=O)Nc2ccc(-c3nnn[nH]3)cc2)C(c2ccccc2Cl)N=C(Nc2nc3ccccc3o2)N1 (stereo not drawn) [Compound 192, N-(4-(1H-tetrazol-5-yl)phenyl)-2-(benzo[d]oxazol-2-ylamino)-4-(2-chlorophenyl)-6-methyl-1,4-dihydropyrimidine-5-carboxamide] | – | – | – | 4.85 | – | 33.4 | 30 | Papp (PAMPA permeability; PAMPA): < 1.7 ×10⁻⁶ cm/s; IC50 (recombinant human GALK1; [6]): 4.85 µM
7 | CCOC(=O)c1cccc(NC(=O)C2=C(C)NC(Nc3nc4ccccc4o3)=NC2c2ccccc2Cl)c1 (stereo not drawn) [Compound 139, ethyl 3-(2-(benzo[d]oxazol-2-ylamino)-4-(2-chlorophenyl)-6-methyl-1,4-dihydropyrimidine-5-carboxamido)benzoate] | – | – | – | 3.85 | – | <1 | >30 | Papp (PAMPA permeability; PAMPA): 8.8 ×10⁻⁶ cm/s
8 | CC1=C(C(=O)Nc2cc(C(=O)O)ccn2)C(c2ccc(-c3ccccc3)cc2Cl)N=C(Nc2nc3ccc(F)cc3o2)N1 (stereo not drawn) [Compound 65, 2-(4-(3-chloro-[1,1′-biphenyl]-4-yl)-2-((6-fluorobenzo[d]oxazol-2-yl)amino)-6-methyl-1,4-dihydropyrimidine-5-carboxamido)isonicotinic acid] | <4.9 1 × 10^−6 cm/sec | >30 | <1 | 3.43 | – | – | – | –
9 | COC(=O)c1ccnc(NC(=O)C2=C(C)NC(Nc3nc4cccc(N)c4o3)=NC2c2ccc(C)cc2Cl)c1 (stereo not drawn) [Compound 91] | 177.1 1 × 10^−6 cm/sec | 25.2784 | <1 | – | – | – | – | IC50 (recombinant mouse GALK1; [7]): 7.08 µM
10 | COC(=O)c1ccc(NC(=O)C2=C(C)NC(Nc3nc4ccccc4o3)=NC2c2ccccc2Cl)cc1 (stereo not drawn) [Compound 138] | – | – | – | – | 25.4 1 × 10^−6 cm/sec | <1 | 17.7182 | IC50 (recombinant mouse GALK1; [8]): 9.68 µM; IC50 (recombinant mouse GALK1; [7]): 9.68 µM
11 | COP(=O)(OC)C1=C(C)NC(Nc2nc3ccccc3o2)=NC1c1ccccc1Cl (stereo not drawn) [Compound 242, dimethyl (2-(benzo[d]oxazol-2-ylamino)-4-(2-chlorophenyl)-6-methyl-1,4-dihydropyrimidin-5-yl)phosphonate] | – | – | – | 17.2 | 1813.86 1 × 10^−6 cm/sec | 12.21 | 5.35 | –
12 | CCOC(=O)C1=C(C(C)C)NC(Nc2nc3ccccc3o2)=NC1c1ccccc1Cl (stereo not drawn) [Compound 240, ethyl 2-(benzo[d]oxazol-2-ylamino)-4-(2-chlorophenyl)-6-isopropyl-1,4-dihydropyrimidine-5-carboxylate] | – | – | – | – | – | <1 | 57.5 | mGALK (μM) (recombinant mouse GALK1; [9]): in- active; hGALK (μM) (recombinant human GALK1; [10]): in- active
13 | CCn1cc(CNC(=O)C2=C(C)NC(Nc3nc4ccc(F)c(N)c4o3)=N[C@H]2c2ccc(C)cc2Cl)cn1 [Compound 135, (R)-2-((7-amino-6-fluorobenzo[d]oxazol-2-yl)amino)-4-(2-chloro-4-methylphenyl)-N-((1-ethyl-1H-pyrazol-4-yl)methyl)-6-methyl-1,4-dihydropyrimidine-5-carboxamide] | – | – | – | 0.07 | 407.39 1 × 10^−6 cm/sec | 2.05 | – | IC50 (recombinant mouse GALK1; [7]): 0.97 µM
14 | CC1=C(C(=O)NCc2cn(C)cn2)[C@@H](c2ccccc2Cl)N=C(Nc2nc3ccccc3o2)N1 [Compound 236, (S)-2-(benzo[d]oxazol-2-ylamino)-4-(2-chlorophenyl)-6-methyl-N-((1-methyl-1H-imidazol-4-yl)methyl)-1,4-dihydropyrimidine-5-carboxamide] | – | – | – | – | – | 40.5 | 8.726 | mGALK IC50 (recombinant mouse GALK1; Tables 2-15, 35 μM ATP, 100 μM galactose, 1 h, bracketed figure after some values is undefined and not reported): inactive; mGALK (μM) (recombinant mouse GALK1; [9]): in- active; hGALK IC50 (recombinant human GALK1; Tables 2-15, 35 μM ATP, 100 μM galactose, 1 h, bracketed figure after some values (e.g. −1.2) is undefined and not reported): inactive; hGALK (μM) (recombinant human GALK1; [10]): in- active
15 | CC1=C(C(=O)Nc2ccc(CN)cc2)C(c2ccccc2Cl)N=C(Nc2nc3ccccc3o2)N1 (stereo not drawn) [Compound 169, N-(4-(aminomethyl)phenyl)-2-(benzo[d]oxazol-2-ylamino)-4-(2-chlorophenyl)-6-methyl-1,4-dihydropyrimidine-5-carboxamide] | – | – | – | 6.11 | – | 10.0 | 72.47 | IC50 (recombinant mouse GALK1; [8]): 4.32 µM; IC50 (recombinant mouse GALK1; [7]): 4.32 µM; IC50 (recombinant human GALK1; [6]): 6.11 µM
16 | COC(=O)C1=C(C(F)(F)F)NC(Nc2nc3ccccc3o2)=NC1c1ccccc1Cl (stereo not drawn) [Compound 241, methyl 2-(benzo[d]oxazol-2-ylamino)-4-(2-chlorophenyl)-6-(trifluoromethyl)-1,4-dihydropyrimidine-5-carboxylate] | – | – | – | – | – | 2.65 | 10.46 | mGALK (μM) (recombinant mouse GALK1; [9]): in- active; hGALK (μM) (recombinant human GALK1; [10]): in- active
